{"source": "paper PMC10828444", "about": "“Selective inhibition of overactive warmth-sensitive Ca^2+-permeable TRPV3 channels by antispasmodic agent flopropione for alleviation of skin inflammation” (The Journal of Biological Chemistry, 2023)", "key": {"hTRPV3 single channel": {"biological_target": "T1, hTRPV3 single channel (Homo sapiens, UniProt Q8NET8)", "T1 construct": "expressed in transfected cells; host or cells: HEK293", "T1 sequence (Q8NET8 1-790)": "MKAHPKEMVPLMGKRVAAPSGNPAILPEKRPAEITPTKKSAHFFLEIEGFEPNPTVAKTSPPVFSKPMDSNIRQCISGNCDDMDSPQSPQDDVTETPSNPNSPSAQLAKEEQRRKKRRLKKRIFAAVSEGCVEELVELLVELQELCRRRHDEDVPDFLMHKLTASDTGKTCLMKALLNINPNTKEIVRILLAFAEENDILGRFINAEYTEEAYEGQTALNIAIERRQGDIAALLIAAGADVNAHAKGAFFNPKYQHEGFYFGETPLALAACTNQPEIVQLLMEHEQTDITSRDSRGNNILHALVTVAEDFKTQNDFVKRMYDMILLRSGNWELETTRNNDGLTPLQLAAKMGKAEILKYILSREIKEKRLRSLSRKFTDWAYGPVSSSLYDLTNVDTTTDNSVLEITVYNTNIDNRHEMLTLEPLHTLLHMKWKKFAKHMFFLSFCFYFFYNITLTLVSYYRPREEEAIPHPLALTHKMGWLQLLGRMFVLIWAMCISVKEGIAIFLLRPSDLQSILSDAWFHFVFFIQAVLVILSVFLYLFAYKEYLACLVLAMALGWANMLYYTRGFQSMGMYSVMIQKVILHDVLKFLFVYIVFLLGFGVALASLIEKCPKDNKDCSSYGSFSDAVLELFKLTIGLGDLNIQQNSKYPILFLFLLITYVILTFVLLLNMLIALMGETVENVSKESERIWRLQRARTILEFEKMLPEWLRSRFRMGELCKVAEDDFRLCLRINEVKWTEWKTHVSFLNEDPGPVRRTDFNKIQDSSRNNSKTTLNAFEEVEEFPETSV", "test": "Inside-out single-channel recordings of TRPV3 in HEK293 cells", "assay_type": "cell-based", "settings": "50 μM flopropione in presence of 30 μM 2-APB, −60 mV", "from_the_text": "For single-channel recordings, borosilicate glass pipettes were pulled from borosilicate glass capillaries and fire-polished to the resistance between 6 and 10 MΩ using a DMZ universal electrode puller (Zeitz-Instruments, GmbH). For inside-out single-channel recordings, both pipette and external solutions contained (in mM): 130 NaCl, three HEPES, and 0.2 EDTA (pH = 7.4). Membrane potential was clamped at −60 mV and currents were digitized at 10 kHz and filtered at 2 kHz."}, "[1]": {"test_system": "DNFB-induced dorsal skin inflammation", "test": "Mouse model of dorsal skin inflammation (atopic dermatitis) induced by DNFB", "assay_type": "in vivo, C57BL/6J mice", "protocol": "(§1) Mice were placed in a gas anesthesia device (SurgiVet) for anesthesia before the hair on the back was removed with a razor, followed by the application of an appropriate amount of hair removal cream to gently shave off the remaining hair. For generation of atopic dermatitis and ear swelling, chemical skin sensitizer DNFB (1-Fluoro-2,4-dinitrobenzene), commonly known as Sanger’s Reagent, was dissolved in a solvent (acetone/olive oil = 4/1, v/v) and 0.5% DNFB in 100 μl was applied once topically to the back and right ear for skin sensitization 1 day after acclimatization for hair removal ([43]) without any treatment for next 3 days. On the fifth and sixth days, 0.2% DNFB in 50 μl was applied topically once a day for 2 days for challenge before different concentrations of flopropione in 100 μl were topically applied once a day for four consecutive days. First application of topical flopropione started half an hour after the last application of 0.2% DNFB challenge. For the effect of flopropione on skin inflammation, topical flopropione (0.1 mM, 1 mM or 10 mM) in 100 μl was applied into ear and shaved area of dorsal skin by swabbing once a day for four consecutive days.\n(§2) The score contents and criteria include (1): skin erythematous/bleeding (2), skin scratches/erosion (3), skin edema (4), skin scaling or lichenoid change ([44]). Each symptom was scored from 0 to 3 (none, 0; mild, one; moderate, two; severe, (3). The final score was defined as the sum of individual scores on a scale from 0 to 12. Mouse ear thickness was measured once a day for continuous 5 days with the first measurement of ear thickness 30 min after the last application of 0.2% DNFB using vernier caliper.\nMice were anesthetized with 1.0% isoflurane before sacrifice 24 h after the last treatment ([31], [32], [43]). Mouse dorsal skin was removed with scissors and forceps before fixed with 4% paraformaldehyde. Paraffin-embedded tissues were sectioned and stained with hematoxylin and eosin. Stained sections were observed using bright-field microscopy (ECLIPSE Ti-S, Nikon) and CCD-camera (DS-Ri2, Nikon)."}, "[2]": {"test_system": "DNFB-induced ear swelling", "test": "Mouse model of ear swelling induced by DNFB", "assay_type": "in vivo, C57BL/6J mice", "settings": "topical 0.1, 1, 10 mM on right ear for 4 days, vs DNFB alone", "protocol": "as §1, with “First application of topical flopropione started half an hour after the last application of 0.2% DNFB challenge. For the effect of flopropione on skin inflammation, topical flopropione (0.1 mM, 1 mM or 10 mM) in 100 μl was applied into ear and shaved area of dorsal skin by swabbing once a day for four consecutive days.” left out\nas §2"}}, "data": [{"smiles": "CCC(=O)c1c(O)cc(O)cc1O", "note": "[flopropione]", "values": [{"measurement": "unitary single channel conductance", "setting": "hTRPV3 single channel", "value": "167.1 ± 9.0", "unit": "pS"}, {"measurement": "single-channel open probability", "setting": "hTRPV3 single channel; n = 4", "value": "0.17 ± 0.06"}, {"measurement": "dorsal skin inflammation (phenotype)", "setting": "[1]; topical 0.1–10 mM, once a day for 4 days, vs DNFB alone", "value": "alleviated the skin inflammation in concentration-dependent manner"}, {"measurement": "dermatitis scores", "setting": "[1]; topical 0.1–10 mM, vs DNFB alone group, n = 5", "value": "significantly reduced the dermatitis scores"}, {"measurement": "skin hyperkeratosis and lesion (histology, dorsal skin thickness)", "setting": "[1]; topical 0.1 ∼ 10 mM, H&E sections, vs DNFB alone", "value": "reduced mouse skin hyperkeratosis and lesion"}, {"measurement": "ear swelling (ear thickness, vernier caliper)", "setting": "[2]", "value": "significantly reduced ear swelling"}]}]}
